Consider three compounds from patent US20050004084A1, “Aspirin-containing trasdermal pharmaceutical composition for the treatment of calcification” (priority 2001, published 2005).

A short description of data set [1]: Examination of the metabolism of acetylsalicylic acid: ASA and SA in plasma by HPLC after gel applied onto skin. The class given is in vivo, New Zealand giant white rabbits. The conditions noted are these: for concentration at 0 h / concentration at 0.25 h / concentration at 0.5 h / concentration at 0.75 h / concentration at 0.75 hour / concentration at 1 h / concentration at 1.5 h / concentration at 2 h / concentration at 3 h / concentration at 4 h: pH 6.5, Salicylic acid and acetysalicylic acid contents of blood samples. Here is the method: The tests were performed on 6 week old male New Zealand giant white rabbits. […] The hair was shaved off from the backs of the rabbits, and 0.6 g of a gel with the following composition was applied onto the skin:
Blood samples were taken periodically as indicated in Table 1 from the jugular veins of the animals, the samples were centrifuged to separate the plasma, and the acetylsalicylic acid (ASA) and salicylic acid (SA) contents of the samples were measured by HPLC. The centrifuged plasma was stored at −22° C. until the time of analysis in order to avoid any ex vivo metabolism due to the presence of esterases in the plasma.
The above test was repeated on the same animals with the difference that 0.01 g of sodium carbonate was also added to the gel and the gel was buffered to pH 6.5.

Data set [2] can be described thus: Urine analyses on rabbits kept on specific calcium-rich diet. Type of data set: in vivo. Here is the method:
From the data of Table 2 it appears that the amount of acetylsalicylic acid present in the blood of the animals stabilized after a short induction period. […] This test was performed on healthy animals, where no dissolution of calcification and no formation of calcium acetylsalicylate due to the dissolution took place.

The mark [3] stands for this setting: male, New Zealand giant white, rabbit, in vivo.
Setting [4] is: male, New Zealand giant white, rabbit, in vivo, 0 h, pH 6.5.
Setting [5] is: male, New Zealand giant white, rabbit, in vivo, 0.75 h, pH 6.5.
[6] abbreviates: male, New Zealand giant white, rabbit, in vivo, 0.75 hour, pH 6.5.
The mark [7] stands for this setting: male, New Zealand giant white, rabbit, in vivo, Salicylic acid and acetysalicylic acid contents of blood samples.

Consider `CC(=O)Oc1ccccc1C(=O)O` [ASA, acetylsalicylic acid], for which, in data set [1] (setting [3]), the “time within which acetylsalicylic acid metabolizes in the body to salicylic acid and acetic acid” value was no more than 15 min; the concentration at 0 h is 0 ng/mL; the concentration at 0.25 h was found to be 570 ng/mL; the concentration at 0.5 h turned out to be 5240 ng/mL. Besides, in data set [1] (setting [3]), the concentration at 0.75 h came to 9440 ng/mL, the concentration at 0.75 hour is 7900 ng/mL, the concentration at 1 h worked out at 7700 ng/mL and the concentration at 1.5 h turned out to be 7120 ng/mL. Further, in data set [1] (setting [3]), the concentration at 2 h amounted to 6980 ng/mL, the concentration at 3 h was 5650 ng/mL and the concentration at 4 h was found to be 4550 ng/mL. For the same compound, in data set [1] (setting [4]), the “Salicylic acid and acetysalicylic acid contents of blood samples” value is on record as 0 μg/ml of plasma. Besides, in data set [1] (male, New Zealand giant white, rabbit, in vivo, 0 hours), the “Salicylic acid and acetysalicylic acid contents of blood samples” value is given as 0 μg/ml of plasma. Also, the “Salicylic acid and acetysalicylic acid contents of blood samples” value in data set [1] (setting [5]) is listed as 9.68 μg/ml of plasma. The “Salicylic acid and acetysalicylic acid contents of blood samples” value in data set [1] (setting [6]) is listed as 8.84 μg/ml of plasma. Further, the “Salicylic acid and acetysalicylic acid contents of blood samples” value in data set [1] (male, New Zealand giant white, rabbit, in vivo, 1.75 hours) is reported as 0.136 μg/ml of plasma. For the same compound, in data set [1] (male, New Zealand giant white, rabbit, in vivo, 4 h, pH 6.5), the “acetylsalicylic acid remained un-metabolized” value amounted to 25%. In data set [1] (setting [7]), the concentration at 0 hours was 0 ng/mL, the concentration at 0.75 hours is 115 ng/mL, the concentration at 1 hours stood at 98 ng/mL and the concentration at 1.75 hours came to 76 ng/mL. Besides, in data set [1] (setting [7]), the concentration at 2 hours was 163 ng/mL. Moreover, the “Salicylic acid and acetysalicylic acid contents of blood samples” value in data set [1] (rabbit, in vivo) is reported as “BLD”. Further, in data set [1] (rabbit, in vivo, pH 6.5), the “metabolism of acetylsalicylic acid (observation)” value was “extreme slow down in the metabolism” and the “start of metabolism of acetylsalicylic acid” value is on record as “third-fourth hour”.
For the compound `O=C(O)c1ccccc1O` [SA, salicylic acid], the “Salicylic acid and acetysalicylic acid contents of blood samples” value in data set [1] (Rabbit 1, 0 hours, 0.6 g gel without carbonate on skin) was “BLD”. Also, the “Salicylic acid and acetysalicylic acid contents of blood samples” value in data set [1] (Rabbit 2, 0 hours, 0.6 g gel without carbonate on skin) was “BLD”. The “Salicylic acid and acetysalicylic acid contents of blood samples” value in data set [1] (Rabbit 3, 0 hours, 0.6 g gel without carbonate on skin) is listed as “BLD”. Further, the “Salicylic acid and acetysalicylic acid contents of blood samples” value in data set [1] (Rabbit 4, 0 hours, 0.6 g gel without carbonate on skin) is on record as “BLD”. In addition, the “salicylic acid content of the blood samples relative to the acetylsalicylic acid content” value in data set [1] (gel without carbonate, Table 1) was “at least one hundredfold”. Further, the “Salicylic acid and acetysalicylic acid contents of blood samples” value in data set [1] (setting [4]) is on record as 0 μg/ml of plasma. The “Salicylic acid and acetysalicylic acid contents of blood samples” value in data set [1] (setting [5]) is recorded as 2.54 μg/ml of plasma. For the same compound, the “Salicylic acid and acetysalicylic acid contents of blood samples” value in data set [1] (setting [6]) is 1.97 μg/ml of plasma. The concentration at 0.75 hours in data set [1] (setting [7]) turned out to be 40800 ng/mL. Also, in data set [1] (setting [3]), the concentration at 0 h amounted to 0 ng/mL, the concentration at 0.25 h turned out to be 900 ng/mL, the concentration at 0.5 h came to 980 ng/mL and the concentration at 0.75 h is 2810 ng/mL. Also, in data set [1] (setting [3]), the concentration at 0.75 hour turned out to be 2100 ng/mL, the concentration at 1 h was 3020 ng/mL, the concentration at 1.5 h stood at 2690 ng/mL and the concentration at 2 h was 3110 ng/mL. Besides, in data set [1] (setting [3]), the concentration at 3 h stood at 7980 ng/mL and the concentration at 4 h is 12200 ng/mL.
As to calcium acetylsalicylate, the “excretion / further metabolism” value in data set [2] is given as “can no longer be metabolized but is excreted from the organism in unchanged form”.
